Laboratory results published in patent publication US20220267380A1, “Glycopeptides Increasing Lipid Synthesis” (TFCHEM, priority 2019, published 2022).

Tested on: normal human dermal fibroblasts (NHDF)
Experiment: Gene expression in NHDF, full transcriptome analysis with Affymetrix U219 microarray
Assay type: cell-based
Details: 10 mg/ml
Method: In the present study, the transcriptional effects (modulation of gene expression) of compounds 1, 2, 3 and 4 were evaluated on normal human dermal fibroblasts (NHDF) under basal conditions.
More specifically, the comparative analysis of the different transcriptomic profiles was performed using an Affymetrix GeneAtlas platform and the human “full transcriptome” U219 chip, which includes 36,000 transcripts and variants.
Fibroblasts were seeded in 24-well plates and cultured in culture medium for 24 hours. The medium was then replaced by assay medium and cells were incubated for further 24 hours. The medium was replaced by assay medium containing or not (control) the test compounds at different concentrations and the cells were preincubated for 24 hours. All experimental conditions were performed in triplicate. At the end of incubation, the culture supernatants were removed and the cells were washed in a phosphate buffered saline (PBS) solution and immediately frozen at −80° C.
Before RNA extraction, the replicates were pooled. Total RNA was extracted from each sample using TriPure Isolation Reagent® according to the supplier's instructions. The amount and quality of total RNA were evaluated for all samples using capillary electrophoresis (Bioanalyzer 2100, Agilent technologies). From each RNA, a labeled and amplified anti-sens RNA (aRNA) was obtained using GeneChip 3′IVT PLUS Kit (Affymetrix). For each labeled and amplified aRNA sample the profiles were evaluated before and after fragmentation using capillary electrophoresis (Bioanalyzer 2100, Agilent technologies). Hybridization of fragmented aRNA onto Affymetrix® U219 chip (36,000 transcripts and variants) was performed in the GeneAtlas™ fluidics Affymetrix® hybridization station for 20 hours at 45° C. U219 chip was analyzed using the GeneAtlas™ Imaging station (Affymetrix®—resolution 2 μm) to generate fluorescence intensity data.
Expression Console and Quality controls: data were normalized with the Expression Console (Affymetrix®) software using RMA algorithm. Then a quality control of the labeling and the hybridization was performed. Hybridization and labeling steps successfully passed the quality controls for these experiments.
Data reduction, Excel file description: once normalized with Expression Console, data were transferred into a Microsoft Excel® file in order to go further into data reduction.
Calculation and tools were added in order to rank and sort data, and finally to support data interpretation. Detection thresholds in terms of fold change were defined and applied on normalized data.
Results are considered and presented or commented per gene (and not probe). A probe set is a collection of probes designed to interrogate a given sequence of a gene. For data interpretation, the most important relative expression value obtained with one probe is considered to be representative of the corresponding gene. The file contains the following data: • Relative expression (RE) for each sample, • Fold change calculation, • Gene information.

[1] = relative expression adjusted to detection limit (<20), NHDF, 24 h
[2] = signed value, Tables 13-14, NHDF

C[C@H](NC(=O)[C@H](C)NC(=O)[C@@H](N)CCCCNCC(F)(F)[C@]1(O)O[C@H](CO)[C@H](O)[C@H](O)[C@H]1O)C(=O)O [Compound 1]
REadj2, PCYT2 [1]: 188.93 | REadj2, PLD1 [1]: 176.07 | REadj2, PTPLA [1]: 498.96 | REadj2, SOAT1 [1]: 390.22 | REadj2, SREBF1 [1]: 519.22 | REadj2, POR (relative expression adjusted to detection limit (<20), NHDF, 24 h, probe set 11716114_x_at): 256.70 | REadj2, HMGCS1 (relative expression adjusted to detection limit (<20), NHDF, 24 h, probe set 11716987_a_at): 875.52 | REadj2, EBP (relative expression adjusted to detection limit (<20), NHDF, 24 h, probe set 11717859_a_at): 582.73 | REadj2, FDPS (relative expression adjusted to detection limit (<20), NHDF, 24 h, probe set 11718366_s_at): 2391.43 | REadj2, MVK (relative expression adjusted to detection limit (<20), NHDF, 24 h, probe set 11719098_a_at): 135.62 | REadj2, PGS1 (relative expression adjusted to detection limit (<20), NHDF, 24 h, probe set 11724792_a_at): 118.91 | REadj2, KDSR (relative expression adjusted to detection limit (<20), NHDF, 24 h, probe set 11730180_s_at): 1037.81 | REadj2, KDSR (relative expression adjusted to detection limit (<20), NHDF, 24 h, probe set 11730181_s_at): 549.40 | REadj2, GBA (relative expression adjusted to detection limit (<20), NHDF, 24 h, probe set 11736100_a_at): 445.83 | REadj2, CHKA (relative expression adjusted to detection limit (<20), NHDF, 24 h, probe set 11736285_a_at): 104.91 | REadj2, CHKA (relative expression adjusted to detection limit (<20), NHDF, 24 h, probe set 11736286_a_at): 120.28 | REadj2, PHLDB2 (relative expression adjusted to detection limit (<20), NHDF, 24 h, probe set 11737039_a_at): 119.06 | REadj2, PHLDB2 (relative expression adjusted to detection limit (<20), NHDF, 24 h, probe set 11737041_a_at): 128.19 | REadj2, PHLDB2 (relative expression adjusted to detection limit (<20), NHDF, 24 h, probe set 11737042_s_at): 120.07 | REadj2, PHLDB2 (relative expression adjusted to detection limit (<20), NHDF, 24 h, probe set 11737043_x_at): 178.68 | REadj2, NPC1 (relative expression adjusted to detection limit (<20), NHDF, 24 h, probe set 11743916_a_at): 361.48 | REadj2, FADS1///MIR1908 (relative expression adjusted to detection limit (<20), NHDF, 24 h, probe set 11745459_a_at): 1633.20 | REadj2, NPC1 (relative expression adjusted to detection limit (<20), NHDF, 24 h, probe set 11746723_a_at): 192.21 | REadj2, MVK (relative expression adjusted to detection limit (<20), NHDF, 24 h, probe set 11747747_a_at): 83.27 | REadj2, POR (relative expression adjusted to detection limit (<20), NHDF, 24 h, probe set 11748368_x_at): 269.37 | REadj2, PGS1 (relative expression adjusted to detection limit (<20), NHDF, 24 h, probe set 11748428_a_at): 84.52 | REadj2, EBP (relative expression adjusted to detection limit (<20), NHDF, 24 h, probe set 11749332_x_at): 445.85 | REadj2, GBA (relative expression adjusted to detection limit (<20), NHDF, 24 h, probe set 11750975_x_at): 439.06 | REadj2, GBA (relative expression adjusted to detection limit (<20), NHDF, 24 h, probe set 11751085_a_at): 451.06 | REadj2, GBA (relative expression adjusted to detection limit (<20), NHDF, 24 h, probe set 11751086_x_at): 338.51 | REadj2, KDSR (relative expression adjusted to detection limit (<20), NHDF, 24 h, probe set 11751627_a_at): 533.05 | REadj2, FADS1///MIR1908 (relative expression adjusted to detection limit (<20), NHDF, 24 h, probe set 11752670_a_at): 2502.62 | REadj2, GBA (relative expression adjusted to detection limit (<20), NHDF, 24 h, probe set 11753440_x_at): 229.00 | REadj2, HMGCS1 (relative expression adjusted to detection limit (<20), NHDF, 24 h, probe set 11754918_s_at): 929.88 | REadj2, FADS1///MIR1908 (relative expression adjusted to detection limit (<20), NHDF, 24 h, probe set 11755251_x_at): 1571.10 | REadj2, FDPS (relative expression adjusted to detection limit (<20), NHDF, 24 h, probe set 11758249_s_at): 2098.38 | Fold change, ABCA1 [2]: 2.112 | Fold change, ABHD5 [2]: 2.634 | Fold change, ACAT2 [2]: 2.124 | Fold change, ACSS2 [2]: 2.288 | Fold change, ADORA2B [2]: 2.461 | Fold change, AKR1B1 [2]: 4.194 | Fold change, AKR1C1/AKR1C2 [2]: 2.597 | Fold change, ALDH1A3 [2]: −3.504 | Fold change, ANGPT1 [2]: −2.510 | Fold change, CD9 [2]: 2.337 | Fold change, CH25H [2]: −2.770 | Fold change, CHKA [2]: 2.999 | Fold change, CLN3 [2]: 2.570 | Fold change, CYP19A1 [2]: 2.736 | Fold change, CYP51A1 [2]: 2.202 | Fold change, DHCR7 [2]: 3.675 | Fold change, DHCR24 [2]: 2.267 | Fold change, EBP [2]: 2.685 | Fold change, EGR1 [2]: −2.928 | Fold change, FADS1 [2]: 4.196 | Fold change, FADS2 [2]: 2.642 | Fold change, FDPS [2]: 2.104 | Fold change, FGF2 [2]: 2.008 | Fold change, FOS [2]: −2.521 | Fold change, GBA [2]: 3.016 | Fold change, GPER1 [2]: 2.031 | Fold change, GRP [2]: −2.699 | Fold change, HMGCR [2]: 2.018 | Fold change, HMOX1 [2]: 5.168 | Fold change, HSD3B7 [2]: 2.132 | Fold change, HSD17B7 [2]: 2.443 | Fold change, HTR2B [2]: 2.118 | Fold change, IDI1 [2]: 2.013 | Fold change, IGFBP2 [2]: −2.717 | Fold change, INSIG1 [2]: 3.422 | Fold change, KDSR [2]: 2.288 | Fold change, LDLR [2]: 2.988 | Fold change, LPIN1 [2]: 2.458 | Fold change, LSS [2]: 2.527 | Fold change, MAP3K8 [2]: 3.713 | Fold change, ME1 [2]: 2.548 | Fold change, MVD [2]: 2.448 | Fold change, MVK [2]: 2.082 | Fold change, NGF [2]: −2.648 | Fold change, NPC1 [2]: 6.532 | Fold change, NRG1 [2]: −2.111 | Fold change, NSMAF [2]: 2.624 | Fold change, NTN1 [2]: 2.832 | Fold change, PCYT2 [2]: 2.412 | Fold change, PDE5A [2]: −3.902 | Fold change, PDK4 [2]: −2.280 | Fold change, PGS1 [2]: 2.410 | Fold change, PLAU [2]: −2.785 | Fold change, PLD1 [2]: 2.155 | Fold change, POR [2]: 2.200 | Fold change, PTGS1 [2]: 3.893 | Fold change, RAB27A [2]: 2.279 | Fold change, RUNX1 [2]: 2.441 | Fold change, S1PR1 [2]: 2.651 | Fold change, SCD [2]: 7.772 | Fold change, SEMA3A [2]: −3.169 | Fold change, SERINC2 [2]: 2.635 | Fold change, SLC1A3 [2]: 4.715 | Fold change, SOAT1 [2]: 2.012 | Fold change, SOCS3 [2]: 3.734 | Fold change, SREBF1 [2]: 3.237 | Fold change, ST6GALNAC5 [2]: 2.080 | Fold change, STC1 [2]: 3.016
